{"source": "patent US20250073209A1", "about": "“COVALENT TARGETING OF RhoA FOR CANCER THERAPY” (The University of Hong Kong, priority 2023, published 2025)", "key": {"HCT116 cells": {"test_system": "HCT116 cells", "experiment": "Gel ABPP in HCT116 cells with CL16-alkyne", "format": "cell-based, human", "procedure": "HCT116 and SW620 cells were plated onto 6-well plate at a density of 5×10^5 cells per well overnight. Then the cells were treated with CL16 at indicated concentration for 2 hours, followed by treatment with CL16-alkyne (1 μM) for 2 hours. After treatment, the cells were washed with PBS and lysed by probe sonication. Cell debris were removed by centrifugation at 5,000g for 10 min at 4° C. 50 μL of normalized protein lysates (2 mg/mL) were labeled with azide-fluor 545 by copper-catalyzed azide-alkyne cycloaddition at room temperature in dark for an hour. Then, the reaction was quenched by boiling in sampling buffer and samples were subjected to SDS-PAGE to separate proteins band for measuring in-gel fluorescence. After imaging, the gel was washed with MilliQ and incubated with Coomassie Blue stain with gentle shaking.\nTo identify protein target and any off-targets of CL16 in CRCs, a molecular probe of CL16, CL16-alkyne (FIG. 6A), was synthesized. […] The protein bands were then visualized by their in-gel fluorescence or blotted for RhoA. […] The probe-labeled proteins were installed with rhodamine through CuAAC, and visualized by their in-gel fluorescence after SDS-PAGE. A protein band with strong fluorescence was found at −22 kDa in the sample incubated with CL16-alkyne only, in line with the molecular weight of RhoA (FIG. 6C)."}, "HCT116 xenograft": {"test_system": "HCT116 xenograft", "experiment": "Mouse HCT116 xenograft model", "format": "in vivo", "details": "nude mice, 10 mg/kg intraperitoneal", "procedure": "FIG. 7A is a graph showing inhibition of tumor growth by CL16 in mouse HCT116 xenografts through intraperitoneal injection at 10 mg/kg (n=6 per group). FIG. 7B is a graph showing inhibition of tumor growth by CL16 in mouse HT29 xenografts through intraperitoneal injection at 10 mg/kg (n=7). FIG. 7C is a graph showing the body weight of mice with HT29 xenografts throughout the treatment with CL16. FIG. 7D is a graph showing inhibition of tumor growth by CL16 in mouse SW620 xenografts through intraperitoneal injection at 10 mg/kg (n=6 per group). FIG. 7E is a bar graph showing the tumor weight of harvested tumors from the treated mice with SW620 xenografts. FIG. 7F is a graph showing the body weight of mice with SW620 xenografts throughout the treatment with CL16. Statistical analysis using a two-tailed Student's t-test. *P<0.05.\n7-week-old mice with weight around 20 g were inoculated subcutaneously with HCT116 (2×10^6 cells per mouse) or HT29 (3×10^6 cells per mouse) cells, in serum-free RMPI or Matrigel in PBS respectively. […] The tumor volume and body weight of the nude mice were measured throughout the treatment. The tumor volume was calculated by the equation: Volume (mm^3)=1×w^2/2, where 1 and w were the length and width of the tumor. At the end of the treatment, the mice were sacrificed and the tumor weight was measured. […]"}, "Rac1": {"molecular_target": "Rac1 (Homo sapiens, UniProt P63000)", "experiment": "Rac1-GTP PAK-PBD pull-down in HT29 cells", "format": "cell-based", "design": "endogenous in cells; host or cells: HT29", "details": "HT29, complete medium 24 h", "description": "The procedure is similar to that for RhoA-GTP assay, except that Rac1-GTP and Cdc42-GTP in CRC cells were first enriched by Rac1 Pull-Down Activation Assay Biochem Kit (Cytoskeleton #BK035) instead of using the RhoA kit. The enriched Rac1-GTP and Cdc42-GTP were then immunoblotted by Rac1/2/3 antibody (CST #2465) and Cdc42 antibody (CST #2462) respectively.\nGTP loading onto RhoA is critical for the protein activation and mediating downstream signals. In view of the inhibitions of GDP-to-GTP exchange of RhoA by CL16 in vitro as discussed above, effects of CL16 on RhoA biology in colorectal cancer cells were examined. In the serum starvation-re-stimulation experiment, HCT116 cells were grown in serum-free medium with CL16, Rhosin or solvent control for 24 h, followed by stimulation with 10% FBS for 10 min. The cells were then lysed and the RhoA activity was assayed by the level of RhoA-GTP, which is the active form of RhoA. […] HT29 cells were incubated with solvent vehicle, CL16 or Rhosin in complete medium for 24 h. The cells were then washed, lysed and subjected to rhotekin pull-down for blotting RhoA-GTP, or PAK-PBD pull-down for blotting Rac1-GTP and Cdc42-GTP. Confocal fluorescence images from HCT116 and HT29 cells expressing FRET RhoA-biosensor in the serum starvation-restimulation experiment were taken."}, "CRC xenografts": {"test_system": "CRC xenografts", "experiment": "H&E and immunohistochemistry on tissues of nude mice with CRC xenografts", "format": "in vivo, mouse", "description": "FIGS. 14A and 14B are graphs showing immunohistochemistry staining scores for the images of H&E and immunohistochemistry staining of Ki67 (FIG. 14A) and cleaved caspase-3 staining (FIG. 14B) of tumor tissues from the vehicle- or CL16-treated mice. FIGS. 14C and 14D are graphs showing immunohistochemistry staining scores for the images of H&E, Ki67 (FIG. 14C) and cleaved caspase-3 (FIG. 14D) staining of tumor tissues from the vehicle- or CL16-treated mice with HT29 xenografts.\nAfter confirming the anticancer properties of CL16 on CRC cells and RhoA Cys16 as its primary molecular target, the anticancer effect of CL16 in vivo was studied."}}, "data": [{"compound": "O=C(CCl)N1N=C(c2cc3ccccc3o2)CC1c1ccco1", "note": "(stereo not shown) [CL16]", "values": [{"measurement": "fluorescent protein band at 22 kDa labeled by CL16-alkyne", "setting": "HCT116 cells; CL16 pre-treatment at 10 μM", "value": "complete abolishment of the protein band"}, {"measurement": "off-target binding", "setting": "HCT116 cells; HCT116 cells", "value": "minimal off-target binding"}, {"measurement": "tumor growth vs vehicle control", "setting": "HCT116 xenograft", "value": "significantly inhibited tumor growth"}, {"measurement": "Rac1 activity (Rac1-GTP)", "setting": "Rac1", "value": "no significant changes"}, {"measurement": "H&E staining of major organs", "setting": "CRC xenografts; CL16-treated mice", "value": "no observable damages on major organs"}, {"measurement": "Ki67 immunohistochemistry on tumor tissues", "setting": "CRC xenografts; CL16-treated vs solvent", "value": "reduction in Ki67"}, {"measurement": "cleaved caspase-3 level in tumor tissues", "setting": "CRC xenografts; CL16-treated vs vehicle", "value": "elevated cleaved caspase-3 level"}]}]}
